Experimental data: patent US20210161993A1, “Method for accelerated healing of burn wounds” (PVP LABS PTE. LTD., priority 2018, published 2021)
Peptide text beside a SMILES is read from it.

Legend:
II-IIIA degree burns [1] = test: Burn model in rats, hexapeptide as topical 0.02-0.5% solution (Example 3); type: in vivo, outbred male rats; conditions: for Day on which burn wound hyperaemia score reached 0: after thermal injury; for Day on which burn wound hyperaemia score reached 0 / Burn wound oedema score: topical; for Burn wound oedema score: score 0-3
Procedure: The efficacy of topical administration of tyrosyl-D-alanyl-glycyl-phenylalanyl-leucyl-arginine in the therapy of thermal burns was evaluated on models of II-IIIA degree burns in 30 outbred male rats. The animals were kept in a vivarium (ambient temperature 19-23° C.) according to Good Laboratory Practices of the Eurasian Economic Union and the applicable guidelines (Reference).
Flat-bottom glass containers of an appropriate diameter filled with liquid paraffin to ⅔ of their volume were used as the thermal agent. The containers were heated on a water bath before application to the skin of the rats, which were randomized to three groups (n=10 in each group): the control group and two experimental groups. Another tissue repair stimulator, dexpanthenol (5% topical ointment), was used as the comparator. All the rats received burns with a standardized area of ≈40 cm^2. Within 20 min. after inflicting the thermal injury, control group animals were treated by applying an aseptic dressing followed by therapy with Iodopiron and Levomecol (group I); animals in the experimental groups additionally received dexpanthenol (group II) or 0.02-0.5% solution of hexapeptide tyrosyl-D-alanyl-glycyl-phenylalanyl-leucyl-arginine (group III consisting of 5 animals that received 0.02% solution and 5 animals that received 0.5% solution).
The experiment involved evaluating the general condition of the animals and performing gross examination to evaluate the severity of tissue oedema in the burn region, hyperaemia, infiltration, appearance of wound discharge and wound epithelialization. These signs were scored as follows: maximum severity of a sign corresponded to a score of 3 points, and absence of a sign to a score of 0. Objective assessment of the healing process was based on planimetric measurements. All the observations were performed on days 1, 3, 5, 7 and 10 of the experiment.
The healing rate was determined using the formula V=(S1−S2)/t, where S1=wound area during the previous measurement, S2=wound area during the next measurement, t=number of days between the previous and the next measurement.
The experiment also included an evaluation of the white blood cell population as a ratio of the total number of lymphocytes to segmented cells in venous blood.

linear wounds = test: Linear (planar) skin wound model in rats (Example 4); type: in vivo, white male Wistar rats
Procedure: The study was performed in white male Wistar rats. All the animals were randomized to three groups of 13 rats each: (I) control Group (untreated), (II) comparator Group (Bepanthen topical cream with 5% dexpanthenol) and (III) experimental Group (hexapeptide tyrosyl-D-alanyl-glycyl-phenylalanyl-leucyl-arginine). The Group III consisted of 5 animals that received 0.02% solution and 5 animals that received 0.5% solution.
Linear wounds were modeled by an approximately 4-cm-long longitudinal incision in the skin and subcutaneous fat along the midline of the back. After making the incision, the edges of the wound were brought together, and three sutures were applied at an equal distance. The animals received the study drugs starting on the day of the operation; the control Group received a placebo. In each group, 3 rats were intended for a tensometric study, which required euthanasia on day 7 of the experiment. Samples for a histological evaluation were collected immediately after complete healing (on days 25-26).
The study drugs were applied once daily, every day, for 20 days. The wound healing effect was evaluated based on the clinical course (presence of purulent discharge, dynamics of wound edge attachment) on days 4, 7, 15 and 20 of the experiment.

3rd degree burn = conditions: 0.3 mg subcutaneously; cited from earlier work
burn injury = conditions: intraperitoneal; during 14 days after burn injury; Dalargin 0.5 mg/kg; control 60%; cited from earlier work
II-IIIA degree burns [2] = test: Burn model in rats, hexapeptide as 0.02% and 0.5% gel (Example 5); type: in vivo, outbred male rats; conditions: for Average healing rate of burn wounds, difference to control Group I: FIG. 4; for Burn area (planimetry), dynamics of burn wound healing: vs control and Bepanthen
Procedure: The efficacy of topical administration of hexapeptide tyrosyl-D-alanyl-glycyl-phenylalanyl-leucyl-arginine in the therapy of thermal burns was evaluated on models of II-IIIA degree burns in 40 outbred male rats. The animals were kept in a vivarium according to Good Laboratory Practices of the Eurasian Economic Union and the applicable guidelines (Reference). Flat-bottom glass containers of an appropriate diameter filled with liquid paraffin to ⅔ of their volume were used as a thermal agent. The animals were randomized to four groups (n=10 in each group): Group I was the control group. A popular tissue repair product, Bepanthen (topical cream with 5% dexpanthenol), was used as the comparator. Burn area was standardized at Æ40 cm^2.
An aseptic dressing applied within the first 20 minutes after the burn, followed by therapy with Iodopiron and Levomecol, was used for control Group I. Group II was treated with Bepanthen. Group III received hexapeptide tyrosyl-D-alanyl-glycyl-phenylalanyl-leucyl-arginine as 0.02% topical gel, while Group IV received hexapeptide tyrosyl-D-alanyl-glycyl-phenylalanyl-leucyl-arginine as 0.5% topical gel.
In addition to monitoring the general condition of the animals on days 1, 3, 5, 7 and 10 of the experiment, the healing process was evaluated planimetrically. The healing rate was determined using the formula V=(S1-S2)/t, where S1=wound area during the previous measurement, S2=wound area during the next measurement, t=number of days between the previous and the next measurement.

neutrophils = conditions: cited from earlier work

| Molecule | Day on which burn wound hyperaemia score reached 0 (II-IIIA degree burns [1]) | Burn wound oedema score (II-IIIA degree burns [1]; day 1 after thermal injury) | Burn wound oedema score (II-IIIA degree burns [1]; day 5 after thermal injury) | Burn wound oedema score (II-IIIA degree burns [1]; day 7 after thermal injury) | Tensiometric evaluation, superiority relative to control Group I (linear wounds; day 7 of the experiment) | Healing of the linear wound (visual inspection) (linear wounds; once daily for 20 days, relative to control and comparator, FIG. 3) | Histological evaluation of the scar (linear wounds; samples collected after complete healing (days 25-26)) | Reduction of hyperaemia compared with Dexpanthenol (II-IIIA degree burns [1]; topical 0.02-0.5% solution) | Average healing rate of burn wounds, difference to control Group I (II-IIIA degree burns [1]; topical 0.02-0.5% solution, FIG. 1) | Burn area (planimetry), dynamics of burn wound healing (II-IIIA degree burns [1]; topical 0.02-0.5% solution, vs control and Dexpanthenol) | Day on which lymphocyte-neutrophil ratio returned to normal (II-IIIA degree burns [1]; venous blood, topical 0.02-0.5% solution, FIG. 2) | Skin repair and productive inflammation (3rd degree burn) | Mortality rate (burn injury) | Average healing rate of burn wounds, difference to control Group I (II-IIIA degree burns [2]; 0.02% topical gel (Group III)) | Burn area (planimetry), dynamics of burn wound healing (II-IIIA degree burns [2]; 0.02% topical gel (Group III)) | Average healing rate of burn wounds, difference to control Group I (II-IIIA degree burns [2]; 0.5% topical gel (Group IV)) | Burn area (planimetry), dynamics of burn wound healing (II-IIIA degree burns [2]; 0.5% topical gel (Group IV)) | Reduction of burn area, 0.5% gel (Group IV) relative to 0.02% gel (Group III) (II-IIIA degree burns [2]; not statistically significant) | Effect on activated neutrophils and NADPHase activity (neutrophils; blood of healthy humans (n=27)) | Effect on functional and metabolic activity of neutrophils (neutrophils; peripheral blood samples of burn patients (n=15)) |
| --- | --- | --- | --- | --- | --- | --- | --- | --- | --- | --- | --- | --- | --- | --- | --- | --- | --- | --- | --- | --- |
| CC(C)(CO)[C@@H](O)C(=O)NCCCO [Dexpanthenol, dexpanthenol] | 7 days | 2.0±0.5 points | 0.7±0.5 points | 0.3±0.3 points | – | – | – | – | – | – | – | – | – | – | – | – | – | – | – | – |
| CC(C)C[C@H](NC(=O)[C@H](Cc1ccccc1)NC(=O)CNC(=O)[C@@H](C)NC(=O)[C@@H](N)Cc1ccc(O)cc1)C(=O)N[C@@H](CCCNC(=N)N)C(=O)O [tyrosyl-D-alanyl-glycyl-phenylalanyl-leucyl-arginine] (HELM PEPTIDE1{Y.[dA].G.F.L.R}$$$$V2.0) | 5 days | 1.0±0.4 points | 0.3±0.2 points | 0.0±0.0 points | over than twofold | more rapid healing of the linear wound | fibrous components were dominant in scar tissue relative to cellular components | statistically significantly more effective | Statistically significant differences | significant reduction of burn area already on day 3 | 7 days | significant acceleration of skin repair and reduced intensity of productive inflammation | 75% | Statistically significant differences | pronounced statistically significant positive dynamics of burn wound healing | Statistically significant differences | pronounced statistically significant positive dynamics of burn wound healing | numerically greater reduction of burn area | increasing the total number of activated neutrophils and NADPHase activity | normalized elevated functional and metabolic activity of neutrophils |
| delta sleep-inducing peptide [DSIP] | – | – | – | – | – | – | – | – | – | – | – | – | 20% | – | – | – | – | – | – | – |
